Earlier results on one molecule are cited in patent US20060127456A1, “Novel fiber-based consumer products based on new concepts of fiber modification” (priority 2004, published 2006).

As to `II` [Iodine], the increase of solubility (in 1% aqueous solution of PVP, versus water) was approximately 17 fold. Further, the solubility in water entry (water) is given as “very sparingly soluble”.
